Source: US20250223301A1, “KINASE INHIBITORS, PREPARATION METHODS AND USES THEREOF” (InventisBio Co., Ltd., priority 2022, published 2025)
Like-named read-outs stand apart in the source and are kept apart here.

Key:
DGKa [1] = target: T1, DGKa (Homo sapiens (Human), UniProt P23743); assay: biochemical;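 also: biochemical DGK kinase assay, ADP-Glo luminescence from ADP made by phosphorylating 1,2-dioleoyl-sn-glycerol, 20 min compound preincubation then 40 min reaction at 25 °C, 1% DMSO control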
Protocol: (§1) The DGKa and DGKz kinase assays were performed using Promega ADP-Glo kit (Promega, Cat #V9102). One microliter test compound was added to a 384-well plate. Reactions were performed in a 5 uL volume by adding 2 uL mixture of DGK enzyme and ATP in assay buffer (50 mM MOPS pH 7.5, 100 mM NaCl, 10 mM MgCl2, 1 mM CaCl2, 0.0025% BSA, and 1 mM DTT). […] The enzyme solution was incubated with test compound at 25 ? for 20 min. […] The reaction was initiated by the addition of 2 uL of substrate solution (7 uM 1.2-dioleoyl-sn-glycerol, 5 mM octyl-b-D-glucopyranoside) in the 5 uL assay volume. The resulting mixture was incubated at 25° C. for 40 minutes. Next, 5 uL of ADP-Glo-reagent was added to the plate and incubated for 40 minutes. Then 10 uL of kinase detection reagent was added and incubated for 30 minutes. Luminescence was recorded using an Tecan SPARK microplate reader. 1% DMSO vehicle was used as control and no enzyme well was used as blank well.

DGKz = DGKz (Homo sapiens (Human), UniProt Q13574); assay: DGK ADP-Glo kinase assay (DGKz); type: biochemical; settings: 5 nM DGKz, 15 uM ATP
Chain of DGKz (Q13574 whole entry): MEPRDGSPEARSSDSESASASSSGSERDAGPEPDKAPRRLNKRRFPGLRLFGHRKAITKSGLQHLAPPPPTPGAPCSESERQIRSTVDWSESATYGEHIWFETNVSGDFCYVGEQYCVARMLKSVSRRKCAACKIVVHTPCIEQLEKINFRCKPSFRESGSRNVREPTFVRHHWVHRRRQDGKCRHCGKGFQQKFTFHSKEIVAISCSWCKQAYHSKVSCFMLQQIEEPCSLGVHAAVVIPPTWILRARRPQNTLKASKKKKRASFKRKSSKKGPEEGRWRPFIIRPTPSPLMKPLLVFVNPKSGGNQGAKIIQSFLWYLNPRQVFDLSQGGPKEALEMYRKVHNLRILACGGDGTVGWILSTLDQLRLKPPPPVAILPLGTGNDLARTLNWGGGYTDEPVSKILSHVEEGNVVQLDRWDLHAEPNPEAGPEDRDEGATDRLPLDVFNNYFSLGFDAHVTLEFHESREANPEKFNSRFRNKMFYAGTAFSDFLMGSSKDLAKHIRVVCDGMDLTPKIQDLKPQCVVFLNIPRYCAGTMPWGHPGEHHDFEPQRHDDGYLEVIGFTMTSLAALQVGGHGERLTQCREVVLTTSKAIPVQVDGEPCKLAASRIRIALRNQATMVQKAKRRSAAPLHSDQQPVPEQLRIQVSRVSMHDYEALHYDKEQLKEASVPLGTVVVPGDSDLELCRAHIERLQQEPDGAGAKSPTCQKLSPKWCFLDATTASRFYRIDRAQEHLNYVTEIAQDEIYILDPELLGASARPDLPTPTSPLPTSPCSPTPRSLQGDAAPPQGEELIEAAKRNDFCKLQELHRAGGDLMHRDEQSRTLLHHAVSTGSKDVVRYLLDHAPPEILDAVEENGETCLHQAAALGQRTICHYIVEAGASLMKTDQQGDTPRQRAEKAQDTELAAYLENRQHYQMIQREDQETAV
Protocol: Luminescence was recorded using an Tecan SPARK microplate reader.

DGKa [2] = target: T1, DGKa
Protocol: as §1

PBMC = assay: Human PBMC IL-2 assay; type: cell-based; settings: anti-CD3/CD28 stimulation overnight, IL-2 level
Summary of the method: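 Healthy-donor frozen PBMC were thawed, rested 4 h at 37 °C and plated at ~200,000 cells/well. Cells were preincubated 60 min at 37 °C with compound solution (10 uM to 0.6 nM, 8 points, 4-fold, as added), then stimulated overnight with anti-CD3/CD28. Supernatant IL-2 was quantified by immunoassay kit and plotted against log compound concentration.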

Jurkat cells = assay: Jurkat IL-2 assay; type: cell-based; settings: Homo sapiens, anti-CD3/CD28 stimulation overnight, IL-2 level
Summary of the method: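 Cells in RPMI-1640 with 10% FBS received compound solution (5 uM to 2.3 nM, 8 points, 3-fold dilution) for 60 minutes at 37° C. They were then stimulated overnight at 37° C. with anti-CD3/CD28 antibody. IL-2 in the supernatant was quantified by immunoassay kit and plotted against log compound concentration.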

T1 sequence (P23743 whole entry): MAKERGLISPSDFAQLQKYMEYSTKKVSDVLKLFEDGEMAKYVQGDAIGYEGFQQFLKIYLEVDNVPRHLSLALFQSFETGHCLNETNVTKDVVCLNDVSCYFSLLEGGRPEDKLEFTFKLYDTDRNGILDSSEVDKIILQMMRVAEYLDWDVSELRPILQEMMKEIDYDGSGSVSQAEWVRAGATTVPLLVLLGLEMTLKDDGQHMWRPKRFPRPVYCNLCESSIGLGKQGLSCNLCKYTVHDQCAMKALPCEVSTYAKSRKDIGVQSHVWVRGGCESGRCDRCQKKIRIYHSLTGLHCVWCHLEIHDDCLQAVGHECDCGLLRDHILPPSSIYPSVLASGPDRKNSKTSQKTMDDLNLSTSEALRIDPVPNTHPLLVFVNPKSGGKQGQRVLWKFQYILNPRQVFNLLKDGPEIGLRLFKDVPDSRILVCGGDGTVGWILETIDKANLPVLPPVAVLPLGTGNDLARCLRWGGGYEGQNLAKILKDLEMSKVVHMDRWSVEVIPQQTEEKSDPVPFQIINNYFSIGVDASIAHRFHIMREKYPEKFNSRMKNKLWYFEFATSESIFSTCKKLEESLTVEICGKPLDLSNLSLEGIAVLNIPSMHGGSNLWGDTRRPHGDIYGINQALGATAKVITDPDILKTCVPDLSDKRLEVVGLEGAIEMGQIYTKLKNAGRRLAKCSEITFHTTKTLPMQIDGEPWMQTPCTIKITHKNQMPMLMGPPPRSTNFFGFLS

Row | Compound | IC50 (DGKa [1]) | IC50 (DGKz) | IC50 (DGKa [2]) | EC50 (PBMC) | EC50 (Jurkat cells)
1 | CC[C@@H]1CN(c2nc3nncn3c3ccc(C#N)nc23)[C@@H](C)CN1[C@@H](CC)c1ccc(SC(F)(F)F)cc1 (stereo in doubt) [Compound 66] | 4 nM | 53 nM | – | – | –
2 | CC[C@H]1CN([C@@H](CC)c2ccc(SC(F)(F)F)cc2)[C@H](CC)CN1c1nc2nncn2c2ccc(C#N)nc12 (stereo in doubt) [Compound 68] | 5 nM | 103 nM | – | – | –
3 | CC[C@H]1CN([C@H](CC)c2ccc(SC(F)(F)F)cc2)[C@H](CC)CN1c1nc2nncn2c2ccc(C#N)nc12 (stereo in doubt) [Compound 69] | 10 nM | 346 nM | – | – | –
4 | CC[C@H]1CN([C@H](c2ccc(SC(F)(F)F)cc2)c2nc(C3CC3)no2)[C@H](CC)CN1c1nc(=O)n(C)c2ccc(C#N)nc12 (stereo in doubt) [Compound 70] | 3 nM | 53 nM | – | – | –
5 | CC[C@@H]1CN(c2nc3nncn3c3ccc(C#N)nc23)[C@@H](C)CN1[C@H](CC)c1ccc(SC(F)(F)F)cc1 (stereo in doubt) [Compound 71] | 21 nM | 236 nM | – | – | –
6 | CC[C@H]1CN([C@H](CC)c2ccc(S(F)(F)(F)(F)F)cc2)[C@H](CC)CN1c1nc(=O)n2c3c(cc(C#N)nc13)OCC2 (stereo in doubt) [Compound 79] | 111 nM | 333 nM | – | – | –
7 | CC[C@@H]1CN(c2nc3nncn3c3ccc(C#N)nc23)[C@@H](C)CN1[C@@H](CC)c1ccc(S(F)(F)(F)(F)F)cc1 (stereo in doubt) [Compound 80] | 12 nM | 27 nM | – | – | –
8 | CC[C@@H]1CN(c2nc3nncn3c3ccc(C#N)nc23)[C@@H](C)CN1[C@@H](CC)c1ccc(C(F)(F)F)cc1 (stereo in doubt) [Compound 81] | 6 nM | 16 nM | – | – | –
9 | CC[C@@H]1CN(c2nc3nncn3c3ccc(C#N)nc23)[C@@H](C)CN1[C@H](CC)c1ccc(C(F)(F)F)cc1 (stereo in doubt) [Compound 82] | 2 nM | 454 nM | – | – | –
10 | CC[C@H]1CN([C@@H](CC)c2ccc(S(F)(F)(F)(F)F)cc2)[C@H](CC)CN1c1nc(=O)n2c3c(cc(C#N)nc13)OCC2 (stereo in doubt) [Compound 83] | 23 nM | 124 nM | – | – | –
11 | CC[C@H]1CN([C@@H](C)c2ccc(S(F)(F)(F)(F)F)cc2)[C@H](CC)CN1c1nc2nncn2c2ccc(C#N)nc12 (stereo in doubt) [Compound 88] | 18 nM | 38 nM | – | – | –
12 | CC[C@H]1CN([C@H](C)c2ccc(S(F)(F)(F)(F)F)cc2)[C@H](CC)CN1c1nc2nncn2c2ccc(C#N)nc12 (stereo in doubt) [Compound 89] | 10 nM | 116 nM | – | – | –
13 | CC[C@@H]1CN(c2nc3nncn3c3ccc(C#N)nc23)[C@@H](C)CN1[C@H](CC)c1ccc(S(F)(F)(F)(F)F)cc1 (stereo in doubt) [Compound 90] | 10 nM | 404 nM | – | – | –
14 | CC[C@H]1C[C@@H](c2nc3cc(C)ccc3o2)CCN1c1nc(=O)n(C)c2cc(O[C@H]3CCOC3)c(Cl)cc12 (stereo in doubt) [Compound 93] | 12 nM | 130 nM | – | – | –
15 | CC[C@@H]1C[C@@H](c2nc3cc(C)ccc3o2)CCN1c1nc(=O)n(C)c2cc(OC3CCOC3)c(Cl)cc12 (stereo in doubt) [Compound 96] | 4 nM | 2820 nM | – | – | –
16 | CC[C@H]1CN([C@H](CC)c2ccc(OC(F)(F)F)cc2)[C@H](CC)CN1c1nc2nncn2c2ccc(C#N)nc12 (stereo in doubt) [Compound 101] | 11 nM | 235 nM | – | – | –
17 | CC[C@H]1CN([C@@H](CC)c2cccc(C(F)(F)F)c2)[C@H](CC)CN1c1nc2nncn2c2ccc(C#N)nc12 (stereo in doubt) [Compound 105] | 4 nM | 29 nM | – | – | –
18 | CC[C@H]1CN([C@H](CC)c2cccc(C(F)(F)F)c2)[C@H](CC)CN1c1nc2nncn2c2ccc(C#N)nc12 (stereo in doubt) [Compound 106] | 24 nM | 555 nM | – | – | –
19 | CC[C@H]1CN([C@@H](CC)c2ccc(C(F)(F)F)nc2)[C@H](CC)CN1c1nc2nncn2c2ccc(C#N)nc12 (stereo in doubt) [Compound 111] | 7 nM | 18 nM | – | – | –
20 | CC[C@H]1CN([C@H](CC)c2ccc(C(F)(F)F)nc2)[C@H](CC)CN1c1nc2nncn2c2ccc(C#N)nc12 (stereo in doubt) [Compound 112] | 11 nM | 183 nM | – | – | –
21 | CC[C@H]1CN([C@@H](CC)c2ccc(OC)cc2F)[C@H](CC)CN1c1nc2nncn2c2ccc(C#N)nc12 (stereo in doubt) [Compound 115] | – | 8 nM | 3 nM | – | –
22 | CC[C@H]1CN([C@H](CC)c2ccc(OC)cc2F)[C@H](CC)CN1c1nc2nncn2c2ccc(C#N)nc12 (stereo in doubt) [Compound 116] | – | 347 nM | 14 nM | – | –
23 | CC[C@H]1CN([C@H](c2ccc(S(F)(F)(F)(F)F)cc2)C2CC2)[C@H](CC)CN1c1nc(=O)n(C)c2ccc(C#N)nc12 (stereo in doubt) [Compound 117] | 18 nM | 200 nM | – | – | –

Row | Compound | IC50 (DGKa [1]) | IC50 (DGKz) | IC50 (DGKa [2]) | EC50 (PBMC) | EC50 (Jurkat cells)
24 | CC[C@H]1CN([C@@H](c2ccc(S(F)(F)(F)(F)F)cc2)C2CC2)[C@H](CC)CN1c1nc(=O)n(C)c2ccc(C#N)nc12 (stereo in doubt) [Compound 118] | 22 nM | 610 nM | – | – | –
25 | Cn1c(=O)nc(N2CCC3(CCN(c4ccc(OC(F)(F)F)cc4)C3)CC2)c2nc(C#N)ccc21 [Compound 8] | – | 547 nM | 579 nM | – | –
26 | Cc1ccccc1-n1cc(C2CCN(c3nc(=O)n(C)c4ccc(C#N)nc34)CC2)cn1 [Compound 12] | – | > 10000 nM | 6600 nM | – | –
27 | CC[C@@H]1C[C@H](Oc2ccc(OC(F)(F)F)cc2)CCN1c1nc(=O)n(C)c2ccc(C#N)nc12 [Compound 16] | 926 nM | 58 nM | – | – | –
28 | CC[C@H]1C[C@@H](Oc2ccc(OC(F)(F)F)cc2)CCN1c1nc(=O)n(C)c2ccc(C#N)nc12 [Compound 17] | 53 nM | 212 nM | – | 401 nM | –
29 | CC[C@H]1CN([C@H](CC)c2ccc(S(F)(F)(F)(F)F)cc2)[C@H](CC)CN1c1nc(=O)n(C)c2ccc(C#N)nc12 [Compound 29] | 14 nM | 55 nM | – | – | –
30 | Cc1ccc2oc(C3CCN(c4nc(=O)n(C)c5cc(O[C@@H]6CCOC6)c(Cl)cc45)CC3)nc2c1 [Compound 32] | 9 nM | > 10000 nM | – | – | –
31 | Cc1ccc2oc(C3CCN(c4nc(=O)n(C)c5cc(O[C@H]6CCOC6)c(Cl)cc45)CC3)nc2c1 [Compound 33] | 2 nM | 60 nM | – | – | –
32 | Cn1c(=O)nc(N2CCCc3c(C#CC4CC4)cccc32)c2nc(C#N)ccc21 [Compound 39] | 1 nM | 2050 nM | – | – | –
33 | CC[C@H]1CN([C@H]2CCCCc3cc(C(F)(F)F)ccc32)[C@H](CC)CN1c1nc(=O)n(C)c2ccc(C#N)nc12 [Compound 44] | 40 nM | 315 nM | – | – | –
34 | CC[C@H]1CN([C@@H]2CCCCc3cc(C(F)(F)F)ccc32)[C@H](CC)CN1c1nc(=O)n(C)c2ccc(C#N)nc12 [Compound 45] | 245 nM | 45 nM | – | – | 858 nM
35 | CC[C@H]1CN([C@H](c2ccc(SC(F)(F)F)cc2)c2nc(C3CC3)cs2)[C@H](CC)CN1c1nc(=O)n(C)c2ccc(C#N)nc12 [Compound 57] | 24 nM | 607 nM | – | – | –
36 | CC[C@H]1CN([C@@H](c2ccc(SC(F)(F)F)cc2)c2nc(C3CC3)cs2)[C@H](CC)CN1c1nc(=O)n(C)c2ccc(C#N)nc12 [Compound 58] | 9 nM | 367 nM | – | – | –
37 | N#Cc1cc2c3c(n1)c(N1CCC4(CC1)CC(c1ccc(OC(F)(F)F)cc1)=NO4)nc(=O)n3CCO2 [Compound 59] | 28 nM | 162 nM | – | – | –
38 | CC[C@@H]1CN(c2nc(=O)n(C)c3ccc(C#N)nc23)[C@@H](C)CN1C(c1ccc(S(F)(F)(F)(F)F)cc1)c1nc(C2CC2)no1 (stereo partly shown) [Compound 65] | 14 nM | 59 nM | – | – | –
39 | CC[C@@H]1CN(c2nc(=O)n(C)c3ccc(C#N)nc23)[C@@H](C)CN1[C@H](c1ccc(F)cc1)c1ccc(SC(F)(F)F)cn1 [Compound 73] | 15 nM | 58 nM | – | – | –
40 | CC[C@@H]1CN(c2nc3nncn3c3ccc(C#N)nc23)[C@@H](CC)CN1C(=O)c1ccc(C(F)(F)F)cc1 [Compound 84] | 9 nM | 1160 nM | – | – | –
41 | CC[C@@H]1CN(c2nc3nncn3c3ccc(C#N)nc23)[C@@H](CC)CN1C(=O)Cc1ccc(C(F)(F)F)cc1 [Compound 85] | 18 nM | 770 nM | – | – | –
42 | CC[C@H]1CN([C@H](CC)c2ccc(S(F)(F)(F)(F)F)cc2)[C@H](CC)CN1c1nc2nncn2c2ccc(C#N)nc12 [Compound 87] | 2 nM | 93 nM | – | – | –
43 | CC[C@@H]1C[C@H](c2nc3cc(C)ccc3o2)CCN1c1nc(=O)n(C)c2cc(O[C@H]3CCOC3)c(Cl)cc12 [Compound 91] | 29 nM | 6060 nM | – | – | –
44 | CC[C@@H]1C[C@H](c2nc3cc(C)ccc3o2)CCN1c1nc(=O)n(C)c2cc(O[C@@H]3CCOC3)c(Cl)cc12 [Compound 92] | 227 nM | 6 nM | – | – | –
45 | CC[C@@H]1CN2c3c(c(=O)n(C)c4ccc(C#N)nc34)OC[C@@H]2CN1[C@@H](CC)c1ccc(SC(F)(F)F)cc1 [Compound 123] | 78 nM | 798 nM | – | – | –
46 | CC[C@@H]1CN2c3c(c(=O)n(C)c4ccc(C#N)nc34)OC[C@@H]2CN1[C@H](CC)c1ccc(SC(F)(F)F)cc1 [Compound 124] | 6 nM | 114 nM | – | – | –
